Data: patent US5686486A, “4-hydroxy-benzopyran-2-ones and 4-hydroxy-cycloalkyl[b]pyran-2-ones useful to treat retroviral infections” (priority 1995, dated 1997)
Counter-ions that a name gives are not always drawn.

Biological target: HIV-1 protease (Human immunodeficiency virus type 1 group M subtype B, UniProt P04585)
Experiment: biochemical
Details: for inhibition at 1 µM: read-out: HIV-1 Protease % Inhib, dose 1.000 uM; for inhibition at 10 µM: read-out: HIV-1 Protease % Inhib, dose 10.000 uM; for inhibition at 100 µM: read-out: HIV-1 Protease % Inhib, dose 100.000 uM; for IC50: HIV-1 Protease IC50; for HIV-1 Protease % Inhib: dose 100.000 uM
Method: The HIV protease screening assay is based on fluorescently labeled substrate which can be resolved from nonlabeled cleavage product using special beads coated with streptavidin. The substrate is biotinylated at the amino terminal arginine and fluorescently labeled with fluorescein isothiocynate (FITC) at the carboxyl terminal lysine. This assay has been employed to detect novel, nonpeptidic inhibitors of HIV-1 protease. Substrate (20 μl of 0.2 μM), sample (10 μl of desired concentration), and enzyme (10 μl of 0.1 μM) are added to a 96 well pandex plate. The assay is run in 0.1M sodium acetate buffer at pH 5.5 in the presence of 1.0M sodium chloride and 0.05% NP-40 with incubated in the dark for one hour at room temperature. Strepavidin coated polystyrene beads {40 μl of 0.1% (w/v)} are added and the plate is incubated in the dark for an additional half hour. The labeled cleavage product is separated from the unreacted substrate via filtration and is read on the Idexx screen machine. The data are analyzed by appropriate computer algorithms to ascertain percent inhibition values.

`CC(c1cccc(C(=O)NCC(=O)NCc2nc3ccccc3[nH]2)c1)c1c(O)c2ccccc2oc1=O` (stereo not shown) [Example 33, Coumarin, 3-[1-[3-[[[[[[(2-benzimidazolyl)methyl]amino]carbonyl]methyl]amino]carbonyl]phenyl]ethyl]4-hydroxy-] showed an inhibition at 1 µM of less than 10%, an inhibition at 10 µM of 11.2% and an inhibition at 100 µM of 77.4%.
With `O=c1oc2ccccc2c(O)c1C1CCCc2ccccc21` (stereo not shown) [Example 34, 4-hydroxy-3-[1-(1,2,3,4-tetrahydro)naphthyl]-coumarin] the IC50 was 3.6 µM, the inhibition at 1 µM was less than 10% and the inhibition at 10 µM was 50.3%. For the same molecule, the inhibition at 100 µM was 91.1%.
For `O=c1oc2ccccc2c(O)c1C1CCc2ccccc21` (stereo not shown) [Example 35, 4-hydroxy-3-[1-indanyl]-coumarin], the IC50 was 6.8 µM, the inhibition at 1 µM was less than 10% and the inhibition at 10 µM was 19.6%. It also gave an inhibition at 100 µM of 92.6%.
`CCC(c1ccc(F)cc1)c1c(O)c2ccccc2oc1=O` (stereo not drawn) [Example 36, Coumarin, 3-(α-ethyl-p-fluorobenzyl)4-hydroxy-] was tested, and the inhibition at 1 µM was less than 10%, the inhibition at 10 µM was 16.9% and the inhibition at 100 µM was 81.6%.
`CCCC(c1ccccc1)c1c(O)c2ccc(OC)cc2oc1=O` (stereo not drawn) [Example 37, Coumarin, 7-methoxy-3-(α-propylbenzyl)4-hydroxy-] gave an IC50 of 7 µM, an inhibition at 1 µM of less than 10% and an inhibition at 10 µM of 59.5%. For the same molecule, the inhibition at 100 µM was 103%.
Work on `COc1ccc2c(O)c(C(c3ccccc3)C3CC3)c(=O)oc2c1` (stereo not shown) [Example 38, 3-cyclopropylphenylmethyl-4-hydroxy-7-methoxy coumarin] yielded an IC50 of 2.8 µM, an inhibition at 1 µM of 18.6% and an inhibition at 10 µM of 83.2%. For the same molecule, the inhibition at 100 µM was 93.4%.
Work on `CC(C)(c1ccccc1)c1c(O)c2ccccc2oc1=O` [Example 39, 3-(α,α-dimethylbenzyl)4-hydroxy coumarin] yielded an IC50 of 5 µM, an inhibition at 1 µM of 13.8% and an inhibition at 10 µM of 69.6%. It also gave an inhibition at 100 µM of 82%.
`CCC(c1cccc(N)c1)c1c(O)c2ccccc2oc1=O` (stereo not shown) [Example 40, Coumarin, 3-[1-(3-aminophenyl)propyl]4-hydroxy-, monohydrochloride-] showed an inhibition at 1 µM of less than 10%, an inhibition at 10 µM of less than 10% and an inhibition at 100 µM of 51.3%.
For `CCC(c1cccc(NC(=O)COc2cccc3ccccc23)c1)c1c(O)c2ccccc2oc1=O` (stereo not shown) [Example 41, Coumarin, 4-hydroxy-3-[1-[3-[[(1-naphthoxymethyl)carbonyl]amino]phenyl]propyl]-], the inhibition at 1 µM was less than 10%, the inhibition at 10 µM was 32.6% and the inhibition at 100 µM was 80.6%.
In the case of `CCC(c1cccc(NC(=O)C(NC(=O)OC(C)(C)C)C(C)C)c1)c1c(O)c2ccccc2oc1=O` (stereo not shown) [Example 42, Carbamic acid, [1-[[[3-[1-(4-hydroxy-2-oxo-2H-1-benzopyran-3-yl)propyl]phenyl]amino]carbonyl]-2-methylpropyl]-, 1,1-dimethylethyl ester], the IC50 is reported as 9.9 µM, the “HIV-1 Protease % Inhib” value is reported as 102.8% and the inhibition at 1 µM is reported as 11.5%. The inhibition at 10 µM was 75.2% and the inhibition at 100 µM was 112%.
In the case of `CCC(c1cccc(NC(=O)CNC(=O)OC(C)(C)C)c1)c1c(O)c2ccccc2oc1=O` (stereo not shown) [Example 43, Coumarin, 4-hydroxy-3-[1-[3-[[[[(1,1-dimethylethoxycarbonyl)amino]methyl]carbonyl]amino]phenyl]propyl]-], the IC50 is reported as 2.1 µM, the inhibition at 1 µM is reported as 28.4% and the inhibition at 10 µM is reported as 103%. For the same molecule, the inhibition at 100 µM was 122%.
For `CCCCC(=O)Nc1cccc(C(CC)c2c(O)c3ccccc3oc2=O)c1` (stereo not shown) [Example 44, Coumarin, 4-hydroxy-3-[1-[3-[(1-oxopentyl)amino]phenyl]propyl]-], the inhibition at 1 µM was less than 10%, the inhibition at 10 µM was less than 10% and the inhibition at 100 µM was 55.6%.
In the case of `CCC(c1cccc(NC(=O)c2ccccn2)c1)c1c(O)c2ccccc2oc1=O` (stereo not shown) [Example 45, Coumarin, 4-hydroxy-3-[1-[3-[[(2-pyridinyl)carbonyl]amino]phenyl]propyl]-], the inhibition at 1 µM is reported as less than 10%, the inhibition at 10 µM is reported as 28.5% and the inhibition at 100 µM is reported as 90.9%.
In the case of `CCC(c1cccc(NC(=O)CN)c1)c1c(O)c2ccccc2oc1=O` (stereo not shown) [Example 46, Coumarin, 3-[1-[3-[[(aminomethyl)carbonyl]amino]phenyl]propyl]4-hydroxy-, trifluoroacetate (salt)], the IC50 is reported as 4.2 µM, the “HIV-1 Protease % Inhib” value is reported as 107% and the inhibition at 1 µM is reported as 22.1%. It also gave an inhibition at 10 µM of 96.3% and an inhibition at 100 µM of 116%.
`CCC(c1cccc(NC(=O)CC(C)(C)NC(=O)OC(C)(C)C)c1)c1c(O)c2ccccc2oc1=O` (stereo not shown) [Example 47, Coumarin, 4-hydroxy-3-[1-[3-[[1-oxo-3-methyl-3-[(1,1-dimethylethoxycarbonyl)amino]butyl]amino]phenyl]propyl]-] gave an inhibition at 1 µM of less than 10%, an inhibition at 10 µM of less than 10% and an inhibition at 100 µM of 53%.
Molecule `CCC(c1cccc(NC(=O)CC(C)(C)N)c1)c1c(O)c2ccccc2oc1=O` (stereo not shown) [Example 48, Coumarin, 3-[1-[3-[(3-amino-3-methyl-1-oxobutyl)amino]phenyl]propyl]-4-hydroxy-, trifluoroacetate (salt)] has an inhibition at 1 µM of less than 10%, an inhibition at 10 µM of less than 10% and an inhibition at 100 µM of 43.3%.
`CCC(CC(=O)Nc1cccc(C(CC)c2c(O)c3ccccc3oc2=O)c1)c1ccccc1` (stereo not shown) [Example 49, Coumarin, 4-hydroxy-3-[1-[3-[(1-oxo-3-phenylpentyl)amino]phenyl]propyl]-] was tested, and the inhibition at 1 µM was less than 10%, the inhibition at 10 µM was 21.9% and the inhibition at 100 µM was 60.3%.
`CCC(c1cccc(NC(=O)CCCNC(=O)OC(C)(C)C)c1)c1c(O)c2ccccc2oc1=O` (stereo not shown) [Example 50, Coumarin, 4-hydroxy-3-[1-[3-[[4-[(1,1-dimethylethoxycarbonyl)amino]-1-oxobutyl]amino]phenyl]propyl]-] gave an IC50 of 2.3 µM, an inhibition at 1 µM of 33.5% and an inhibition at 10 µM of 80.3%. The inhibition at 100 µM was 95.5%.
With `CCC(c1cccc(NC(=O)CC[C@H](NC(=O)OC(C)(C)C)C(=O)OC(C)(C)C)c1)c1c(O)c2ccccc2oc1=O` (stereo partly drawn) [Example 51, L-Glutamine, N2-[(1,1-dimethylethoxy)carbonyl]-N-[3-[1-(4-hydroxy-2-oxo-2H-1-benzopyran-3-yl)propyl]phenyl]-, 1,1-dimethylethyl ester] the inhibition at 1 µM was less than 10%, the inhibition at 10 µM was less than 10% and the inhibition at 100 µM was 39.6%.
`CCC(c1cccc(NC(=O)CC[C@H](N)C(=O)O)c1)c1c(O)c2ccccc2oc1=O` (stereo partly drawn) [Example 52, L-Glutamine, N-[3-[1-(4-hydroxy-2-oxo-2H-1-benzopyran-3-yl)propyl]phenyl]-, mono(trifluoroacetate) (salt)] showed an IC50 of 3.1 µM, an inhibition at 1 µM of 26.8% and an inhibition at 10 µM of 81.5%. For the same molecule, the inhibition at 100 µM was 120%.
Molecule `CCC(c1cccc(NC(=O)CCCc2ccccc2)c1)c1c(O)c2ccccc2oc1=O` (stereo not shown) [Example 53, Coumarin, 4-hydroxy-3-[1-[3-[(i-oxo-4-phenylbutyl)amino]phenyl]propyl]-] has an inhibition at 1 µM of less than 10%, an inhibition at 10 µM of less than 10% and an inhibition at 100 µM of 71.8%.
Molecule `CCC(c1cccc(NC(=O)CCCCc2ccccc2)c1)c1c(O)c2ccccc2oc1=O` (stereo not shown) [Example 54, Coumarin, 4-hydroxy-3-[1-[3-[(1-oxo-5-phenylpentyl)amino]phenyl]propyl]-] has an inhibition at 1 µM of less than 10%.
Work on `CCC(c1cccc(NC(=O)Cc2ccccc2)c1)c1c(O)c2ccccc2oc1=O` (stereo not shown) [Example 55, Coumarin, 4-hydroxy-3-[1-[3-[[(phenylmethyl)carbonyl]amino]phenyl]propyl]-] yielded an inhibition at 1 µM of less than 10%, an inhibition at 10 µM of less than 10% and an inhibition at 100 µM of 72%.
